{"source": "ChEMBL document CHEMBL5465560", "about": "“Selectivity Literature for EUbOPEN Chemogenomic Library” (2024)", "key": {"[1]": {"molecular_target": "Cyclin-dependent kinase 8 (Homo sapiens, UniProt P49336)", "sequence (P49336 whole entry)": "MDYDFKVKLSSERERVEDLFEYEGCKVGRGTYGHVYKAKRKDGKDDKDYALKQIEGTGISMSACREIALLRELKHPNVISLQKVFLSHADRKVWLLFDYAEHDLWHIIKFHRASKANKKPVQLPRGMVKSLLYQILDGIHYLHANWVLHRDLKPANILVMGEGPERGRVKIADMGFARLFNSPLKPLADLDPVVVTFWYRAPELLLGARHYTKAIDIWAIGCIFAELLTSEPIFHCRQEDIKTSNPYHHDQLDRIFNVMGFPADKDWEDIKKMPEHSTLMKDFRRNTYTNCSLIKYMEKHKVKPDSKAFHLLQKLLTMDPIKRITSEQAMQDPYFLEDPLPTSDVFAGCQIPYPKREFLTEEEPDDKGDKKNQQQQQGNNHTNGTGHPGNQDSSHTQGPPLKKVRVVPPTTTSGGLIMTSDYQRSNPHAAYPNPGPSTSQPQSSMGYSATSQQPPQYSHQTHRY", "assay": "Selectivity interaction (KinomeScan (DiscoverX)) EUB0000229b CDK8", "conditions": "at 10 µM"}, "[2]": {"molecular_target": "Cyclin-dependent kinase 19 (Homo sapiens) (UniProt Q9BWU1)", "sequence (Q9BWU1 whole entry)": "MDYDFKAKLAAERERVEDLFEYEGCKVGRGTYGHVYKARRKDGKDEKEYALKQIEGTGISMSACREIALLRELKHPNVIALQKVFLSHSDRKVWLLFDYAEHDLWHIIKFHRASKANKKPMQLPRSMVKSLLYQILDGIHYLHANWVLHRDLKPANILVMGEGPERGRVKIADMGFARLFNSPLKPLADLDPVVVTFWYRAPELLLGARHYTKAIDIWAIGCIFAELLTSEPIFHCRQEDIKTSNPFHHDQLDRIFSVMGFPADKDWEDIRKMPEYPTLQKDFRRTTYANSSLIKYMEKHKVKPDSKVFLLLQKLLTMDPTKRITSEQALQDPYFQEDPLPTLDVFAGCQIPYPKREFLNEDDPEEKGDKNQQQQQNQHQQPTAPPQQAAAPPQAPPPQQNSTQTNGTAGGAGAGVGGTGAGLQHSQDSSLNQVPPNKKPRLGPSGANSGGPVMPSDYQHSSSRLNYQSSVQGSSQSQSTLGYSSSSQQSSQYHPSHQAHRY", "assay": "Selectivity interaction (KinomeScan (DiscoverX)) EUB0001079a CDK19", "conditions": "at 1 µM"}, "[3]": {"molecular_target": "T1, Tyrosine-protein kinase ITK/TSK (Homo sapiens) (UniProt Q08881)", "T1 sequence (whole entry)": "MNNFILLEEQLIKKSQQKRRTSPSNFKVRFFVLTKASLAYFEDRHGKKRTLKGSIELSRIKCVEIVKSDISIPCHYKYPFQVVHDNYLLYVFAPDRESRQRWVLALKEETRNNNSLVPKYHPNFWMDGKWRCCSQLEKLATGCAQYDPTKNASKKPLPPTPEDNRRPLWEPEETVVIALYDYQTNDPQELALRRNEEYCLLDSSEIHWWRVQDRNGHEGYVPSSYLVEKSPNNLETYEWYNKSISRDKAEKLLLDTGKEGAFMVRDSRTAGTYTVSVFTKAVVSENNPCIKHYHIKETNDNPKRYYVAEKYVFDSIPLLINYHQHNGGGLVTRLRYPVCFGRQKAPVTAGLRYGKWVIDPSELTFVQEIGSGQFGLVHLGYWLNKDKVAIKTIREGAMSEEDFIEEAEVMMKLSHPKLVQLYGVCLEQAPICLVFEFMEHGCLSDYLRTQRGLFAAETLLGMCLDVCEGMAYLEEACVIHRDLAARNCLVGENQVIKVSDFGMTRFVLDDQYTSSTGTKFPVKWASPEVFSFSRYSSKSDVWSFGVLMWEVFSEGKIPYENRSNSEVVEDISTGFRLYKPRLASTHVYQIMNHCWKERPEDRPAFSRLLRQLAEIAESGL", "conditions": "at 10 µM"}, "[4]": {"molecular_target": "Calcium/calmodulin-dependent protein kinase type II subunit gamma (Homo sapiens) (UniProt Q13555)", "sequence (Q13555 whole entry)": "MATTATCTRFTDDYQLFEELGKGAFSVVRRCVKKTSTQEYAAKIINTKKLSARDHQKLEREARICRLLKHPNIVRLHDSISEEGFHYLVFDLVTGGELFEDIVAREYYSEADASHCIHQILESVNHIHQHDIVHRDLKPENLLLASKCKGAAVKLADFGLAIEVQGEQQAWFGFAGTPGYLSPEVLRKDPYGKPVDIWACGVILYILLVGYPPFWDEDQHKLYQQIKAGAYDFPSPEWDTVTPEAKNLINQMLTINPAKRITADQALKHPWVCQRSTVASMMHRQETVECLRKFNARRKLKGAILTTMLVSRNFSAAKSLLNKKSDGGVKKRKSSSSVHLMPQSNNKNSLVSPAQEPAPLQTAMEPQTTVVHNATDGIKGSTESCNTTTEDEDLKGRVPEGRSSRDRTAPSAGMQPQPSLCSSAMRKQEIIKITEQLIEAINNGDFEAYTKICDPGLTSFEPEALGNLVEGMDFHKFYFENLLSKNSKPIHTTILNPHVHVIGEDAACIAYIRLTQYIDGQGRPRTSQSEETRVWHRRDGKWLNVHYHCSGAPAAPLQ", "assay": "Selectivity interaction (ActivX KiNativ screen (kinase selectivity in THP-1 cell lysates)) EUB0000639a CAMK2G", "type": "subcellular", "conditions": "lysate"}, "[5]": {"molecular_target": "Dual specificity mitogen-activated protein kinase kinase 1 (Homo sapiens, UniProt Q02750)", "sequence (Q02750 whole entry)": "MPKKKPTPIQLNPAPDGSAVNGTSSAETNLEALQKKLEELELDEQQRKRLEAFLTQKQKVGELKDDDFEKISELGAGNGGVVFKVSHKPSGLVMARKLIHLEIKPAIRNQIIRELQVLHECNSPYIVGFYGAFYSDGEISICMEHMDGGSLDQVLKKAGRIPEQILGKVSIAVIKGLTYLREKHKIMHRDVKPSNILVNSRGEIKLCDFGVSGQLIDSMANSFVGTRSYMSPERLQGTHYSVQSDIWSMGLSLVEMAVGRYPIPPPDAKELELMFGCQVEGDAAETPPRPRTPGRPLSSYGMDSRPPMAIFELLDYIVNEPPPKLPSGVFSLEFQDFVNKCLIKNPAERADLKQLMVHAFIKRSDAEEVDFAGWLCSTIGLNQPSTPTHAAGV", "assay": "Selectivity interaction (ActivX KiNativ screen (kinase selectivity in THP-1 cell lysates)) EUB0000639a MAP2K1", "type": "subcellular", "conditions": "lysate, at 5 µM"}, "[6]": {"molecular_target": "T2, Mitogen-activated protein kinase kinase kinase 19 (Homo sapiens) (UniProt Q56UN5)", "T2 sequence (whole entry)": "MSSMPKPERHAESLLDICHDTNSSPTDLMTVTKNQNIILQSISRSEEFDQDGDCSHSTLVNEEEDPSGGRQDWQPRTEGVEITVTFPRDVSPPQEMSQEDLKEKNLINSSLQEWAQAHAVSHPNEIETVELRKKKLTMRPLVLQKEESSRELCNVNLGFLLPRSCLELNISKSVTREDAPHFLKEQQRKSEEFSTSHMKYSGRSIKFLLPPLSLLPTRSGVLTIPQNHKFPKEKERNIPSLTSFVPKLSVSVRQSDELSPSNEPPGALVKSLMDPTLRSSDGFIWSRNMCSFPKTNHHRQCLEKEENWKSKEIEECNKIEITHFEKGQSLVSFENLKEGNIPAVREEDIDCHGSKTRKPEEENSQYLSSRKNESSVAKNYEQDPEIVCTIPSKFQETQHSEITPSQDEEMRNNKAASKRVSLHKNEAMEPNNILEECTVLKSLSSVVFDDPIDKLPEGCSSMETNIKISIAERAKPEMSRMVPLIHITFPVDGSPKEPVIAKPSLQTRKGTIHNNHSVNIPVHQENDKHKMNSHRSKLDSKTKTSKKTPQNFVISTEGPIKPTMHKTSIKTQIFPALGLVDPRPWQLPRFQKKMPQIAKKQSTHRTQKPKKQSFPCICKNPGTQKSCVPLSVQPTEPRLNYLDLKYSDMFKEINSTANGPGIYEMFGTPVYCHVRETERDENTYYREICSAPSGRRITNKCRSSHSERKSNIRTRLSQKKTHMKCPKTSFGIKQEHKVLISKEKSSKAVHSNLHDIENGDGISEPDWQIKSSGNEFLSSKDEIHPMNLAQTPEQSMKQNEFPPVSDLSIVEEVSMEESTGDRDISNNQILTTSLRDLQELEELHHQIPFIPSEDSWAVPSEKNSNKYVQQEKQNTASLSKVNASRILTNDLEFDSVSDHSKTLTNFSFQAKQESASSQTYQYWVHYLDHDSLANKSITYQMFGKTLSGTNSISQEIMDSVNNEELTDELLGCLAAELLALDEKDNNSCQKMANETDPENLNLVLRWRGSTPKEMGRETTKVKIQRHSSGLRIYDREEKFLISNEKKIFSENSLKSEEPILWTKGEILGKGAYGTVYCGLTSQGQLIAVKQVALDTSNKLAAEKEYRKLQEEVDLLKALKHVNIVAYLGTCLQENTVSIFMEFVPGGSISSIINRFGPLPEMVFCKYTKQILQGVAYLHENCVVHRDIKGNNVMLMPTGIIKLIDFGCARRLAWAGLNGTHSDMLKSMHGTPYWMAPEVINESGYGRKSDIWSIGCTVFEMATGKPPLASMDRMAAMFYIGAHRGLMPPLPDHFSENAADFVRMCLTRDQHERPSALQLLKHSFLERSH", "assay": "Selectivity interaction (KinomeScan (DiscoverX)) EUB0000618a MAP3K19", "conditions": "at 10 µM"}, "[7]": {"molecular_target": "Proto-oncogene tyrosine-protein kinase Src (Homo sapiens, UniProt P12931)", "sequence (P12931 2-536 limits assumed)": "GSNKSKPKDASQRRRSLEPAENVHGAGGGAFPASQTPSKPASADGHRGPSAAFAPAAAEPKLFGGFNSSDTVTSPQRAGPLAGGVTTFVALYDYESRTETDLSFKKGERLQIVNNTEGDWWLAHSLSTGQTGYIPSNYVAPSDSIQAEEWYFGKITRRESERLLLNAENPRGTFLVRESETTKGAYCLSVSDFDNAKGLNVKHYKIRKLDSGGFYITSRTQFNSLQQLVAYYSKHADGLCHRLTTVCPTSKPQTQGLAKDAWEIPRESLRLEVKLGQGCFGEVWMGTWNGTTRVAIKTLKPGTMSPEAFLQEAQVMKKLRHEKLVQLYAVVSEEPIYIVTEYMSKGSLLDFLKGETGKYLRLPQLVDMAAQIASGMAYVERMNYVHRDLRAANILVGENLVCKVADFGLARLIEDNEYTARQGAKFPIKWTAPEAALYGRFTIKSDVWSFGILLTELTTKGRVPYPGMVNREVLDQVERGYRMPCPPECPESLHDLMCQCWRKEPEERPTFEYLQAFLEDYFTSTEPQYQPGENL", "assay": "Selectivity interaction (Kinase panel (Z-LYTE Assay)) EUB0001632a SRC", "conditions": "at 10 µM"}}}
{"smiles": "COc1cc(N(C)c2ccnc3ccc(C(F)(F)F)cc23)cc(OC)c1OC", "values": [{"measurement": "% binding", "setting": "[1]", "value": 100, "unit": "%"}]}
{"smiles": "Nc1cnc(N2CCc3cc(S(=O)(=O)Nc4c(F)cc(Cl)cc4F)cc(N4CCCC4=O)c32)nc1", "note": "[TP-020n]", "values": [{"measurement": "% of control", "setting": "[2]", "value": 100, "unit": "%"}]}
{"smiles": "CCN(CC)CCCCNc1ncc2cc(-c3cc(OC)cc(OC)c3)c(NC(=O)NC(C)(C)C)nc2n1", "values": [{"measurement": "% of control", "setting": "[3]", "value": 100, "unit": "%"}]}
{"smiles": "CC[C@@H]1[C@H](F)C(=O)N[C@@H]1COc1nccc2cc(C(N)=O)c(OC)cc12", "note": "[ZIMLOVISERTIB]", "values": [{"measurement": "% of inhibition", "setting": "[4]; at 0.01 µM", "value": -1, "unit": "%"}, {"measurement": "% of inhibition", "setting": "[4]; at 0.04 µM", "value": 3.3, "unit": "%"}, {"measurement": "% of inhibition", "setting": "[4]; at 0.2 µM", "value": 10, "unit": "%"}, {"measurement": "% of inhibition", "setting": "[4]; at 1 µM", "value": 35.2, "unit": "%"}, {"measurement": "% of inhibition", "setting": "[4]; at 5 µM", "value": 63, "unit": "%"}, {"measurement": "% of inhibition", "setting": "[5]", "value": 20.8, "unit": "%"}]}
{"smiles": "O[C@H]1CC[C@H](Nc2ncc3nc(Nc4c(F)cc(F)cc4F)n([C@H]4CCOC4)c3n2)CC1", "values": [{"measurement": "% of control", "setting": "[6]", "value": 47, "unit": "%"}]}
{"smiles": "Cn1cc(-n2cnc3c(NCc4nc5cc(Cl)c(Cl)cc5[nH]4)nc(N4CCOCC4)nc32)cn1", "values": [{"measurement": "% of control", "setting": "[7]", "value": 6.05, "unit": "%"}]}
